Reference: the supplement of paper PMC10307832

How the values were obtained:
Experiment in all cases: relative viability (nuclei count vs DMSO), 5 days (fraction); higher = more cells survive
Sorafenib + Bortezomib = compound: CNC(=O)c1cc(Oc2ccc(NC(=O)Nc3ccc(Cl)c(C(F)(F)F)c3)cc2)ccn1 [Sorafenib] + CC(C)C[C@H](NC(=O)[C@H](Cc1ccccc1)NC(=O)c1cnccn1)B(O)O [Bortezomib] (partner 0.002 µM)
How it was run: (§1)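 Relative viability was taken as the ratio of nuclei in treated wells to nuclei in vehicle wells. Lung cancer cell lines in 1536-well plates received compounds by pin tool one day after seeding, either one drug alone or a fixed anchor-drug dose plus five library-drug doses (not always all listed) in √10 steps. Nuclei were counted on 4× images after 5 days of treatment, and values are medians of duplicate plates.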

Sorafenib + Alpelisib = compound: CNC(=O)c1cc(Oc2ccc(NC(=O)Nc3ccc(Cl)c(C(F)(F)F)c3)cc2)ccn1 [Sorafenib] + Cc1nc(NC(=O)N2CCC[C@H]2C(N)=O)sc1-c1ccnc(C(C)(C)C(F)(F)F)c1 [Alpelisib] (partner 2 µM)
How it was run: as §1

Sorafenib + Vorinostat = compound: CNC(=O)c1cc(Oc2ccc(NC(=O)Nc3ccc(Cl)c(C(F)(F)F)c3)cc2)ccn1 [Sorafenib] + O=C(CCCCCCC(=O)Nc1ccccc1)NO [Vorinostat] (partner 1 µM)
How it was run: as §1

Sorafenib + Phenformin = compound: CNC(=O)c1cc(Oc2ccc(NC(=O)Nc3ccc(Cl)c(C(F)(F)F)c3)cc2)ccn1 [Sorafenib] + N=C(N)NC(=N)NCCc1ccccc1 [Phenformin] (partner 250 µM)
How it was run: as §1

Sorafenib + Luminespib = compound: CNC(=O)c1cc(Oc2ccc(NC(=O)Nc3ccc(Cl)c(C(F)(F)F)c3)cc2)ccn1 [Sorafenib] + CCNC(=O)c1noc(-c2cc(C(C)C)c(O)cc2O)c1-c1ccc(CN2CCOCC2)cc1 [Luminespib] (partner 0.01 µM)
How it was run: as §1

Cell Line | relative viability (Sorafenib + Bortezomib; first compound 0.08 µM) | relative viability (Sorafenib + Bortezomib; first compound 0.253 µM) | relative viability (Sorafenib + Bortezomib; first compound 2.53 µM) | relative viability (Sorafenib + Alpelisib; first compound 0.08 µM) | relative viability (Sorafenib + Alpelisib; first compound 0.253 µM) | relative viability (Sorafenib + Alpelisib; first compound 2.53 µM) | relative viability (Sorafenib + Alpelisib; first compound 8 µM) | relative viability (Sorafenib + Vorinostat; first compound 0.08 µM) | relative viability (Sorafenib + Vorinostat; first compound 0.253 µM) | relative viability (Sorafenib + Vorinostat; first compound 2.53 µM) | relative viability (Sorafenib + Vorinostat; first compound 8 µM) | relative viability (Sorafenib + Phenformin; first compound 0.08 µM) | relative viability (Sorafenib + Phenformin; first compound 0.253 µM) | relative viability (Sorafenib + Phenformin; first compound 2.53 µM) | relative viability (Sorafenib + Phenformin; first compound 8 µM) | relative viability (Sorafenib + Luminespib; first compound 0.08 µM) | relative viability (Sorafenib + Luminespib; first compound 0.253 µM) | relative viability (Sorafenib + Luminespib; first compound 2.53 µM) | relative viability (Sorafenib + Bortezomib; first compound 8 µM) | relative viability (Sorafenib + Luminespib; first compound 8 µM)
NCI-H1437 | 0.629 | 0.513 | 0.59 | 1.01 | 0.922 | 0.905 | 0.546 | 0.782 | 0.783 | 0.705 | 0.307 | 0.301 | 0.299 | 0.302 | 0.306 | 1.1 | 1.06 | 1.17 |  | 
HOP-62 | 0.639 | 0.64 |  | 0.995 | 0.775 | 0.765 | 0.794 | 0.736 | 0.363 | 0.368 | 0.276 | 0.682 | 0.558 | 0.54 | 0.369 | 0.981 | 0.865 | 0.705 | 0.232 | 0.886
LCLC-97TM1 | 0.725 | 0.623 | 0.992 | 0.237 | 0.247 | 0.184 | 0.198 | 0.68 | 0.674 | 0.65 | 0.576 | 0.413 | 0.377 | 0.325 | 0.356 | 0.97 | 0.743 | 0.716 | 0.73 | 0.56
NCI-H2009 | 0.898 | 0.689 | 0.912 | 1.22 |  | 1.03 | 0.842 | 0.703 | 0.666 | 0.699 | 0.719 | 0.47 | 0.365 | 0.433 | 0.157 | 1.03 | 0.868 | 0.915 | 0.522 | 0.476
NCI-H647 | 1.17 | 0.829 | 0.745 | 1.1 |  | 0.872 |  | 0.473 | 0.453 | 0.257 | 0.0463 | 0.636 | 0.495 | 0.454 | 0.198 | 0.182 | 0.0896 | 0.148 | 0.39 | 0.15
NCI-H1563 |  | 0.905 | 0.976 | 0.903 | 1 | 0.894 | 0.728 |  |  |  |  | 0.709 | 0.643 | 0.749 | 0.532 | 0.533 | 0.471 | 0.527 | 0.508 | 0.529
NCI-H3122 | 0.993 | 0.984 | 1.06 | 0.799 | 0.971 | 0.79 | 0.409 | 1.03 | 0.932 |  | 0.846 | 0.39 | 0.326 | 0.346 | 0.212 | 0.11 | 0.105 | 0.0728 | 0.952 | 0.044
BEN | 0.951 | 0.659 |  | 1.1 | 0.889 | 0.906 | 0.798 | 0.567 | 0.621 | 0.685 | 0.593 | 0.278 | 0.254 | 0.239 | 0.205 | 0.439 | 0.173 | 0.2 | 0.631 | 0.0694
COR-L23 | 1.11 | 0.964 | 0.888 | 0.83 | 0.758 | 0.79 | 0.637 | 0.512 | 0.413 | 0.478 | 0.32 | 0.44 | 0.419 | 0.455 | 0.287 | 0.731 | 0.688 | 0.525 | 0.877 | 0.135
NCI-H2228 | 1.24 | 0.893 | 1.02 | 0.863 | 0.753 | 0.694 | 0.64 | 0.672 | 0.598 | 0.265 | 0.315 | 0.362 | 0.285 | 0.259 | 0.133 | 0.181 | 0.178 | 0.154 | 0.615 | 0.105
NCI-H2405 | 1.03 | 0.905 | 1 | 1 | 0.857 | 0.627 | 0.423 | 1.09 | 0.801 | 1.09 | 0.706 | 0.421 | 0.334 | 0.405 | 0.259 | 0.868 | 0.705 | 0.79 | 0.926 | 0.446
NCI-H1666 |  | 0.66 | 0.851 | 0.849 | 0.93 | 0.782 | 0.537 | 1.01 | 0.873 | 1.05 | 0.966 | 0.562 | 0.546 | 0.544 | 0.452 |  | 1.03 | 0.951 |  | 0.872
A-427 | 0.953 | 0.922 | 0.96 | 1.08 | 1.07 | 1.06 | 0.925 | 0.84 | 0.894 | 0.914 | 1.01 | 0.444 | 0.389 | 0.333 | 0.115 | 0.971 | 0.951 | 0.757 | 0.817 | 0.831
COR-L 105 |  | 0.806 | 0.994 | 1.09 | 0.95 | 0.966 | 0.793 | 1.01 | 0.696 | 0.946 | 0.551 | 0.534 | 0.458 | 0.561 | 0.441 | 1 |  | 1.05 | 0.478 | 0.623
NCI-H1755 | 0.921 | 0.945 | 0.988 | 0.977 | 0.93 | 0.857 | 0.694 | 0.81 | 0.702 | 0.843 | 0.549 | 0.569 |  | 0.624 | 0.534 | 0.67 | 0.399 | 0.371 | 0.689 | 0.404
NCI-H23 | 0.97 | 0.89 | 0.804 | 0.74 | 0.632 | 0.745 | 0.498 | 0.635 | 0.384 | 0.678 | 0.547 | 0.829 |  | 0.726 | 0.74 | 0.225 |  | 0.228 | 0.861 | 0.213
SK-MES-1 |  |  |  | 0.957 | 0.877 | 0.854 | 0.873 | 1.15 | 0.914 |  | 0.842 | 0.689 | 0.62 | 0.596 | 0.424 | 0.752 | 0.69 | 0.791 |  | 0.412
